Values quoted from earlier work in patent US5843942A, “Aromatic amino ethers as pain relieving agents” (Zeneca Limited, priority 1994, dated 1998).

In the case of CC(=O)NNC(=O)N1Cc2ccccc2Oc2ccc(Cl)cc21 [SC-19220], the “block of the effect of PGE2” value (cat trachea) is given as “not on other tissues such as the cat trachea”, the “block of the effect of PGE2” value (dog fundus) is given as “blocks the effect of PGE2” and the “block of the effect of PGE2” value (guinea pig ileum) is given as “blocks the effect of PGE2”.
